From PubChem BioAssay (NCI)
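Cultured in 96-well plates, cells were exposed to test compound for 48 hours across five concentrations. Abbreviation: GI50, concentration required for 50% inhibition of growth. TGI is the concentration that stops growth completely.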

Legend:
Test in all cases: NCI tumour cell line growth inhibition, 48 h
BT-549 breast = system: BT-549 breast
M14 melanoma = system: M14 melanoma
MDA-MB-231 breast = system: MDA-MB-231 breast
MDA-N = system: MDA-N
NCI-H522 lung = system: NCI-H522 lung
OVCAR-3 ovarian = system: OVCAR-3 ovarian
SF-539 CNS = system: SF-539 CNS
U251 CNS = system: U251 CNS
DLD-1 colon = system: DLD-1 colon
DMS 114 small cell lung = system: DMS 114 small cell lung
M19-MEL melanoma = system: M19-MEL melanoma
MALME-3M melanoma = system: MALME-3M melanoma
XF 498 CNS = system: XF 498 CNS

| SMILES | TGI (BT-549 breast) [µM] | TGI (M14 melanoma) [µM] | TGI (MDA-MB-231 breast) [µM] | TGI (MDA-N) [µM] | TGI (NCI-H522 lung) [µM] | TGI (OVCAR-3 ovarian) [µM] | TGI (SF-539 CNS) [µM] | TGI (U251 CNS) [µM] | TGI (DLD-1 colon) [µM] | TGI (DMS 114 small cell lung) [µM] | TGI (M19-MEL melanoma) [µM] | TGI (MALME-3M melanoma) [µM] | TGI (XF 498 CNS) [µM] | GI50 (BT-549 breast) [µM] | GI50 (M14 melanoma) [µM] | GI50 (MDA-MB-231 breast) [µM] | GI50 (NCI-H522 lung) [µM] | GI50 (OVCAR-3 ovarian) [µM] | GI50 (SF-539 CNS) [µM] | GI50 (MALME-3M melanoma) [µM] |
| --- | --- | --- | --- | --- | --- | --- | --- | --- | --- | --- | --- | --- | --- | --- | --- | --- | --- | --- | --- | --- |
| CCC(=O)NC(Nc1cccc(F)c1)(C(F)(F)F)C(F)(F)F | > 100 | > 100 | > 100 | > 100 | > 100 | > 100 | > 100 | > 100 |  |  |  |  |  |  |  |  |  |  |  |  |
| c1ccc(N=c2nc(N3CCOCC3)ss2)cc1 |  | 27.9 |  |  | 25.3 |  | 32.3 | 28.6 | 28.3 | 30.2 | 32 | 28.8 | 32.1 |  |  |  |  |  |  |  |
| Fc1ccc(-c2nn3c(-c4cc(C(F)(F)F)cc(C(F)(F)F)c4)nnc3s2)cc1 | > 50 | > 50 | > 50 |  | > 50 | 2.42 | > 50 |  |  |  |  |  |  | > 50 | > 50 | 1.79 | 2.3 | 1.16 | 3.07 |  |
| CC(=O)O[C@H]1C=CC(=O)C(C)CC1C (some centres not stated) |  | > 100 |  |  | > 100 | > 100 | > 100 | > 100 | > 100 | > 100 | > 100 | > 100 | > 100 |  |  |  |  |  |  |  |
| CCCC(N)C(=O)c1ccccc1 (configuration not stated) |  | > 100 |  |  | > 100 | > 100 | > 100 | > 100 | > 100 | > 100 |  | > 100 | > 100 |  |  |  |  |  |  |  |
| COC1=CC(=O)c2c(cc(COP(=O)(OCC3OC(n4cc(F)c(=O)[nH]c4=O)CC3O)N(C)CCCCCl)n2C)C1=O (configuration not stated) | > 100 | 12.8 | 35.8 | 8.86 | 19.1 | 14.5 |  | 37.7 |  |  |  | 9.97 |  |  |  |  |  |  |  |  |
| Cc1cc(C)nc(SCC(=O)OC2CC(C)CCC2C(C)C)n1 (configuration not stated) | 79.9 | 37 | 49.7 |  | 46 | 28.5 |  | 53.8 |  |  |  | 41.1 |  |  |  |  |  |  |  |  |
| CN1C[C@H]2[C@@H](C1=O)[C@H](c1ccccc1)ON2C |  | > 100 | > 100 | > 100 | > 100 | > 100 |  | > 100 |  |  |  |  |  |  |  |  |  |  |  |  |
| O=C(Nc1c(C(=O)NC2CCCCC2)[nH]c(=O)[nH]c1=O)c1ccc(Cl)cc1 |  | > 100 |  |  | > 100 | > 100 | > 100 |  | > 100 | > 100 | > 100 | > 100 | > 100 |  |  |  |  |  |  |  |
| CC(=O)OCC1=C(C(=O)O)C(c2ccc3c(c2)OCO3)c2cc3c(cc2O1)OCO3 (configuration not stated) |  | > 100 |  |  |  | > 100 | > 100 | > 100 | > 100 | > 100 | > 100 | > 100 | > 100 |  |  |  |  |  |  |  |
| Cc1cc(C)c2c(c1)C1=NCCN1C2(O)c1ccc(Cl)cc1 (configuration not stated) | 26.4 | 28.4 | 28.2 | 28.3 |  | 31.4 | 29 | 32.3 |  |  |  |  |  |  |  |  |  |  |  |  |
| NC1(C(=O)O)CCc2ccc(N(CCCl)CCCl)cc2C1 (configuration not stated) |  |  |  |  | 74.3 | > 100 | > 100 | > 100 | > 100 | > 100 | > 100 | 2.2 | > 100 |  |  |  |  |  |  |  |
| N=C(N)SCc1cc(Cl)cc(Cl)c1O | 36.6 | 42.1 | 30.5 | 33.1 | 33.4 | 31.4 | 22.1 | 30 |  |  |  | 72.7 |  |  |  |  |  |  |  |  |
| CCCCCCCNC(P(=O)(O)O)P(=O)(O)O | > 100 | > 100 | > 100 | > 100 | > 100 | > 100 | > 100 | > 100 |  |  |  | > 100 |  |  |  |  |  |  |  |  |
| Cc1ccc(C2N=C(N)NC3=C2CCOc2c3ccc3ccccc23)cc1 (configuration not stated) | > 79.8 | > 55.9 | 32.7 |  | > 100 | 21 | 44.7 | > 66.9 |  |  |  | > 40.6 |  |  |  |  |  |  |  | 4.7 |
| O=C(Nc1ccc(Sc2ccc(N=Nc3c(O)c(S(=O)(=O)O)cc4cc(S(=O)(=O)O)ccc34)cc2)cc1)c1ccc(N=Nc2c(O)ccc3c(S(=O)(=O)O)cc(S(=O)(=O)O)cc23)cc1 |  | 66.2 |  |  | 40.2 | 92.5 | > 100 | > 100 | > 100 |  | 68.6 | 72 | 91.7 |  |  |  |  |  |  |  |
| N#CC(Nc1cccc(C(F)(F)F)c1)c1ccccc1C(F)(F)F (configuration not stated) |  | 17.6 |  |  | 17.1 | 16.3 | 33.1 | 30.5 | 29.5 | 23.8 | 18 | 18 | 12.9 |  |  |  |  |  |  |  |
| Clc1ccc(CNc2nc(Cl)c3[nH]cnc3n2)cc1Cl | 84.5 | 70.3 | > 100 | > 100 | 34.4 | > 100 | 45.2 | > 100 |  |  |  | > 100 |  |  |  |  |  |  |  |  |
| O=C(O)C1CCC(=O)N1S(=O)(=O)c1ccccc1 (configuration not stated) |  |  |  |  | > 100 | > 100 | > 100 | > 100 | > 100 | > 100 | > 100 | > 100 | > 100 |  |  |  |  |  |  |  |
